Test results from patent US10597388B2, “Pyridazinone herbicides” (FMC CORPORATION, priority 2014, dated 2020).

Key:
Format in all cases: in vivo
kochia (Kochia scoparia) = test: Test C greenhouse herbicide test, postemergence; conditions: Postemergence
Outline: (§1)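 Greenhouse postemergence spray on plants 2–18 cm tall; response judged visually after 13–15 d relative to untreated controls using a 0 (none) to 100 (full control) scale.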

[1] = system: oat, wild (wild oat, Avena fatua); test: Test C greenhouse herbicide test, postemergence; conditions: Postemergence
Outline: as §1

[2] = system: blackgrass (Alopecurus myosuroides); test: Test C greenhouse herbicide test, pre- and postemergence
Outline: (§2)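 Preemergence: seeds sown in a loam soil–sand blend and sprayed with test chemicals in a non-phytotoxic solvent mixture containing surfactant. Postemergence: plants grown in peat-based medium and treated at 2 to 18 cm (1- to 4-leaf stage). After 13 to 15 d in a greenhouse, injury was visually rated 0–100 against controls.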

[3] = system: johnsongrass (Sorghum halepense); test: as above
Outline: as §2

[4] = system: morningglory (Ipomoea coccinea); test: as above
Outline: as §2

[5] = system: velvetleaf (Abutilon theophrasti); test: as above
Outline: as §2

[6] = system: crabgrass, large (large crabgrass, Digitaria sanguinalis); test: as above
Outline: as §2

[7] = system: barnyardgrass (Echinochloa crus-galli); test: as above
Outline: as §2

[8] = system: galium (catchweed bedstraw, Galium aparine); test: as above
Outline: as §2

[9] = system: waterhemp (common waterhemp, Amaranthus rudis); test: as above
Outline: as §2

[10] = system: pigweed (Amaranthus retroflexus); test: as above
Outline: as §2

[11] = system: oilseed rape (Brassica napus); test: as above
Outline: as §2

corn (Zea mays) = test: as above
Outline: as §2

[12] = system: wheat (winter wheat, Triticum aestivum); test: as above
Outline: as §2

soybean (Glycine max) = test: as above
Outline: as §2

[13] = system: ragweed (common ragweed, Ambrosia elatior); test: as above
Outline: as §2

[14] = system: foxtail, giant (giant foxtail, Setaria faberii); test: as above
Outline: as §2

[15] = 31 g ai/ha, scale 0 to 100 (0 no effect, 100 complete control)
[16] = 125 g ai/ha, scale 0 to 100, 0 is no effect, 100 is complete control
[17] = 250 g ai/ha, scale 0 to 100, 0 no effect, 100 complete control, 13 to 15 d
[18] = Postemergence, 31 g ai/ha, scale 0 to 100 (0 no effect, 100 complete control)
[19] = Postemergence, 125 g ai/ha, scale 0 to 100, 0 is no effect, 100 is complete control
[20] = Postemergence, 250 g ai/ha, scale 0 to 100, 0 no effect, 100 complete control, 13 to 15 d
[21] = Preemergence, 31 g ai/ha, scale 0 to 100, 0 is no effect, 100 is complete control
[22] = Preemergence, 62 g ai/ha, scale 0 to 100, 0 is no effect, 100 is complete control
[23] = Preemergence, 125 g ai/ha, scale 0 to 100, 0 is no effect, 100 is complete control
[24] = Preemergence, 250 g ai/ha, scale 0 to 100 (0 no effect, 100 complete control)
[25] = postemergence, 62 g ai/ha, scale 0 to 100, 0 no effect, 100 complete control

With `CCCC(=O)Oc1c(C)nn(C)c(=O)c1-c1c(C)sc2c(C)cc(C)cc12` [Compound 106] the “Plant response rating, Kochia” value (kochia (Kochia scoparia); [15]) was 70, the “Plant response rating, Kochia” value (kochia (Kochia scoparia); [16]) was 80 and the “Plant response rating, Kochia” value (kochia (Kochia scoparia); [17]) was 80. For the same molecule, the “Plant response rating, Oat, Wild” value [1, 15] was 50, the “Plant response rating, Oat, Wild” value [1, 16] was 90 and the “Plant response rating, Oat, Wild” value [1, 17] was 90. For the same molecule, the “Plant response rating, Blackgrass” value [2, 18] was 45, the “Plant response rating, Blackgrass” value [2, 19] was 60 and the “Plant response rating, Blackgrass” value [2, 20] was 75. For the same molecule, the “Plant response rating, Blackgrass” value [2, 21] was 10, the “Plant response rating, Blackgrass” value [2, 22] was 50 and the “Plant response rating, Blackgrass” value [2, 23] was 90. For the same molecule, the “Blackgrass plant response rating” value [2, 24] was 85, the “Blackgrass plant response rating” value [2, 25] was 50 and the “Plant response rating, Johnsongrass” value [3, 18] was 5. The “Plant response rating, Johnsongrass” value [3, 19] was 10, the “Plant response rating, Johnsongrass” value [3, 20] was 10 and the “Plant response rating, Johnsongrass” value [3, 21] was 5. For the same molecule, the “Plant response rating, Johnsongrass” value [3, 22] was 5, the “Plant response rating, Johnsongrass” value [3, 23] was 5 and the “Johnsongrass plant response rating” value [3, 24] was 15. The “Plant response rating, Morningglory” value [4, 18] was 100, the “Plant response rating, Morningglory” value [4, 19] was 100 and the “Plant response rating, Morningglory” value [4, 20] was 98. The “Plant response rating, Morningglory” value [4, 21] was 85, the “Plant response rating, Morningglory” value [4, 22] was 90 and the “Plant response rating, Morningglory” value [4, 23] was 98. The “Morningglory plant response rating” value [4, 24] was 98, the “Plant response rating, Velvetleaf” value [5, 18] was 80 and the “Plant response rating, Velvetleaf” value [5, 19] was 90. For the same molecule, the “Plant response rating, Velvetleaf” value [5, 20] was 100, the “Plant response rating, Velvetleaf” value [5, 21] was 40 and the “Plant response rating, Velvetleaf” value [5, 22] was 60. For the same molecule, the “Plant response rating, Velvetleaf” value [5, 23] was 85, the “Velvetleaf plant response rating” value [5, 24] was 90 and the “Plant response rating, Crabgrass, Large” value [6, 18] was 25. The “Plant response rating, Crabgrass, Large” value [6, 19] was 30, the “Plant response rating, Crabgrass, Large” value [6, 20] was 30 and the “Plant response rating, Crabgrass, Large” value [6, 21] was 70. For the same molecule, the “Plant response rating, Crabgrass, Large” value [6, 22] was 70, the “Plant response rating, Crabgrass, Large” value [6, 23] was 75 and the “Crabgrass, Large plant response rating” value [6, 24] was 80. The “Crabgrass, Large plant response rating” value [6, 25] was 40, the “Plant response rating, Barnyardgrass” value [7, 18] was 15 and the “Plant response rating, Barnyardgrass” value [7, 19] was 20. The “Plant response rating, Barnyardgrass” value [7, 20] was 40, the “Plant response rating, Barnyardgrass” value [7, 21] was 25 and the “Plant response rating, Barnyardgrass” value [7, 22] was 45. The “Plant response rating, Barnyardgrass” value [7, 23] was 85, the “Barnyardgrass plant response rating” value [7, 24] was 95 and the “Barnyardgrass plant response rating” value [7, 25] was 15. The “Plant response rating, Galium” value [8, 18] was 95, the “Plant response rating, Galium” value [8, 19] was 95 and the “Plant response rating, Galium” value [8, 20] was 100. The “Plant response rating, Galium” value [8, 21] was 90, the “Plant response rating, Galium” value [8, 22] was 90 and the “Plant response rating, Galium” value [8, 23] was 95. The “Galium plant response rating” value [8, 24] was 95, the “Plant response rating, Waterhemp” value [9, 18] was 65 and the “Plant response rating, Waterhemp” value [9, 19] was 75. The “Plant response rating, Waterhemp” value [9, 20] was 80, the “Plant response rating, Waterhemp” value [9, 21] was 70 and the “Plant response rating, Waterhemp” value [9, 22] was 75. For the same molecule, the “Plant response rating, Waterhemp” value [9, 23] was 80, the “Waterhemp plant response rating” value [9, 24] was 90 and the “Plant response rating, Pigweed” value [10, 18] was 70. The “Plant response rating, Pigweed” value [10, 19] was 90, the “Plant response rating, Pigweed” value [10, 20] was 90 and the “Plant response rating, Pigweed” value [10, 21] was 98. For the same molecule, the “Plant response rating, Pigweed” value [10, 22] was 98, the “Plant response rating, Pigweed” value [10, 23] was 100 and the “Pigweed plant response rating” value [10, 24] was 100. The “Plant response rating, Oilseed Rape” value [11, 18] was 60, the “Plant response rating, Oilseed Rape” value [11, 19] was 85 and the “Plant response rating, Oilseed Rape” value [11, 20] was 95. The “Plant response rating, Oilseed Rape” value [11, 21] was 0, the “Plant response rating, Oilseed Rape” value [11, 22] was 0 and the “Plant response rating, Oilseed Rape” value [11, 23] was 30. The “Oilseed Rape plant response rating” value [11, 24] was 90, the “Plant response rating, Corn” value (corn (Zea mays); [18]) was 0 and the “Plant response rating, Corn” value (corn (Zea mays); [19]) was 10. The “Plant response rating, Corn” value (corn (Zea mays); [20]) was 10, the “Plant response rating, Corn” value (corn (Zea mays); [21]) was 0 and the “Plant response rating, Corn” value (corn (Zea mays); [22]) was 0. The “Plant response rating, Corn” value (corn (Zea mays); [23]) was 10, the “Corn plant response rating” value (corn (Zea mays); [24]) was 20 and the “Corn plant response rating” value (corn (Zea mays); [25]) was 10. The “Plant response rating, Wheat” value [12, 18] was 0, the “Plant response rating, Wheat” value [12, 19] was 0 and the “Plant response rating, Wheat” value [12, 20] was 5. For the same molecule, the “Plant response rating, Wheat” value [12, 21] was 15, the “Plant response rating, Wheat” value [12, 22] was 0 and the “Plant response rating, Wheat” value [12, 23] was 0. For the same molecule, the “Wheat plant response rating” value [12, 24] was 0, the “Plant response rating, Soybean” value (soybean (Glycine max); [18]) was 0 and the “Plant response rating, Soybean” value (soybean (Glycine max); [19]) was 0. For the same molecule, the “Plant response rating, Soybean” value (soybean (Glycine max); [20]) was 10, the “Plant response rating, Soybean” value (soybean (Glycine max); [21]) was 0 and the “Plant response rating, Soybean” value (soybean (Glycine max); [22]) was 0. For the same molecule, the “Plant response rating, Soybean” value (soybean (Glycine max); [23]) was 0, the “Soybean plant response rating” value (soybean (Glycine max); [24]) was 0 and the “Plant response rating, Ragweed” value [13, 18] was 80. For the same molecule, the “Plant response rating, Ragweed” value [13, 19] was 75, the “Plant response rating, Ragweed” value [13, 20] was 98 and the “Plant response rating, Ragweed” value [13, 21] was 85. The “Plant response rating, Ragweed” value [13, 22] was 90, the “Plant response rating, Ragweed” value [13, 23] was 95 and the “Ragweed plant response rating” value [13, 24] was 95. For the same molecule, the “Plant response rating, Foxtail, Giant” value [14, 18] was 70, the “Plant response rating, Foxtail, Giant” value [14, 19] was 90 and the “Plant response rating, Foxtail, Giant” value [14, 20] was 95. For the same molecule, the “Plant response rating, Foxtail, Giant” value [14, 21] was 85, the “Plant response rating, Foxtail, Giant” value [14, 22] was 95 and the “Plant response rating, Foxtail, Giant” value [14, 23] was 100. For the same molecule, the “Foxtail, Giant plant response rating” value [14, 24] was 100.
